According to patent publication EP4596537A1, “NOVEL FLUORENE DERIVATIVE COMPOUND AND USE THEREOF” (JD Bioscience Inc., priority 2022, dated 2024):

What follows are molecules tested on PDHE1α S293 (assay: In vitro PDH S293 phosphorylation inhibition (Western blot) in HEK293 cells). Settings: 5 hours, at 1 µM.
Assay type: cell-based, human
Method: HEK293 cells, which are human embryonic kidney cells, were seeded at a density of 2 × 10^6 in a 60 mm dish, and cultured for 24 hours. After replacing the medium with a medium comprising 0.5% FBS, the compounds prepared according to Examples 1 to 54 were treated at various concentrations. 5 hours later, the cells were scraped off and collected into a 15 mL conical tube and centrifuged at 1500 rpm for 10 minutes. The supernatant was discarded, the resultant was washed with 1× PBS, and transferred to a 1.5 mL e-tube, followed by centrifugation at 10,000 rpm for 5 minutes. The supernatant was discarded again, a lysis buffer was added, and the cells were lysed on ice for 30 minutes. The cells were vortexed every 10 minutes to completely lyse, and centrifuged again at 10,000 rpm for 15 minutes at 4°C, and the supernatant was collected. The protein in the supernatant was quantified using BCA technique, and the sample buffer was added to 20 µg of protein and allowed to react at 70°C for 5 minutes. The expression of PDHE1α S232, S293, S300, and total PDHE1α proteins was detected by Western blot, and the resulting PDH S293 phosphorylation inhibition is shown in Table 6. […]

“N'-(3-chloro-5-(trifluoromethyl)pyridin-2-yl)-2-(4-(9-hydroxy-2-methoxy-9-(trifluoromethyl)-9H-fluoren-4-yl)-1H-pyrazol-1-yl)propanehydrazide [Example 33]” was tested, and the “PDH S293 phosphorylation inhibition” value was “++ (50% or more of PHDE1α S293 expression inhibition rate at 1 µM)”.

Same assay, conditions: Homo sapiens, 5 hours

`CC(C(=O)NNc1ccc(C(F)(F)F)cn1)n1cc(-c2cc(F)cc3c2-c2ccccc2C3(O)C(F)(F)F)cn1` (stereo not shown) [Example 26, 2-(4-(2-fluoro-9-hydroxy-9-(trifluoromethyl)-9H-fluoren-4-yl)-1H-pyrazol-1-yl)-N'-(5-(trifluoromethyl)pyridin-2-yl)propanehydrazide] and `CC(C(=O)NNc1cnccn1)n1cc(-c2cc(F)cc3c2-c2ccccc2C3(O)C(F)(F)F)cn1` (stereo not shown) [Example 24, 2-(4-(2-fluoro-9-hydroxy-9-(trifluoromethyl)-9H-fluoren-4-yl)-1H-pyrazol-1-yl)-N'-(pyrazin-2-yl)propanehydrazide] cannot be ordered by inhibition at 1 µM: no less than 50% for the first, no less than 50% for the second.

`CC(C(=O)NNc1ccccc1F)n1cc(-c2cc(F)cc3c2-c2ccccc2C3(O)C(F)(F)F)cn1` (stereo not shown) [Example 13, 2-(4-(2-fluoro-9-hydroxy-9-(trifluoromethyl)-9H-fluoren-4-yl)-1H-pyrazol-1-yl)-N'-(2-fluorophenyl)propanehydrazide] and `CC(C(=O)NNc1ccccc1Cl)n1cc(-c2cc(F)cc3c2-c2ccccc2C3(O)C(F)(F)F)cn1` (stereo not shown) [Example 6, N'-(2-chlorophenyl)-2-(4-(2-fluoro-9-hydroxy-9-(trifluoromethyl)-9H-fluoren-4-yl)-1H-pyrazol-1-yl)propanehydrazide] cannot be ordered by inhibition at 1 µM: no less than 50% for the first, no less than 50% for the second.

`CC(C(=O)NNc1ncnc2ccccc12)n1cc(-c2cc(F)cc3c2-c2ccccc2C3(O)C(F)(F)F)cn1` (stereo not shown) [Example 35, 2-(4-(2-fluoro-9-hydroxy-9-(trifluoromethyl)-9H-fluoren-4-yl)-1H-pyrazol-1-yl)-N'-(quinazolin-4-yl)propanehydrazide] and `CC(C(=O)NNc1nc2ccccc2s1)n1cc(-c2cc(F)cc3c2-c2ccccc2C3(O)C(F)(F)F)cn1` (stereo not shown) [Example 42, N'-(benzo[d]thiazol-2-yl)-2-(4-(2-fluoro-9-hydroxy-9-(trifluoromethyl)-9H-fluoren-4-yl)-1H-pyrazol-1-yl)propanehydrazide] cannot be ordered by inhibition at 1 µM: no less than 50% for the first, no less than 50% for the second.

`CC(C(=O)NNc1cc2ccccc2[nH]c1=O)n1cc(-c2cc(F)cc3c2-c2ccccc2C3(O)C(F)(F)F)cn1` (stereo not shown) [Example 38, 2-(4-(2-fluoro-9-hydroxy-9-(trifluoromethyl)-9H-fluoren-4-yl)-1H-pyrazol-1-yl)-N'-(2-oxo-1,2-dihydroquinolin-3-yl)propanehydrazide] and `CC(C(=O)NNc1cc(=O)n(C)c2ccccc12)n1cc(-c2cc(F)cc3c2-c2ccccc2C3(O)C(F)(F)F)cn1` (stereo not shown) [Example 40, 2-(4-(2-fluoro-9-hydroxy-9-(trifluoromethyl)-9H-fluoren-4-yl)-1H-pyrazol-1-yl)-N'-(1-methyl-2-oxo-1,2-dihydroquinolin-4-yl)propanehydrazide] cannot be ordered by inhibition at 1 µM: no less than 50% for the first, no less than 50% for the second.

`CC(C(=O)NNc1ccc2ccccc2n1)n1cc(-c2cc(F)cc3c2-c2ccccc2C3(O)C(F)(F)F)cn1` (stereo not shown) [Example 39, 2-(4-(2-fluoro-9-hydroxy-9-(trifluoromethyl)-9H-fluoren-4-yl)-1H-pyrazol-1-yl)-N'-(quinolin-2-yl)propanehydrazide] and `CC(C(=O)NNc1cccc2ccccc12)n1cc(-c2cc(F)cc3c2-c2ccccc2C3(O)C(F)(F)F)cn1` (stereo not shown) [Example 5, 2-(4-(2-fluoro-9-hydroxy-9-(trifluoromethyl)-9H-fluoren-4-yl)-1H-pyrazol-1-yl)-N'-(naphthalen-1-yl)propanehydrazide] cannot be ordered by inhibition at 1 µM: no less than 50% for the first, no less than 50% for the second.

`CC(C(=O)NN1CCCCC1)n1cc(-c2cc(F)cc3c2-c2ccccc2C3(O)C(F)(F)F)cn1` (stereo not shown) [Example 53, 2-(4-(2-fluoro-9-hydroxy-9-(trifluoromethyl)-9H-fluoren-4-yl)-1H-pyrazol-1-yl)-N-(piperidin-1-yl)propanamide] and `CC(C(=O)NN1CCCCCC1)n1cc(-c2cc(F)cc3c2-c2ccccc2C3(O)C(F)(F)F)cn1` (stereo not shown) [Example 54, N-(azepan-1-yl)-2-(4-(2-fluoro-9-hydroxy-9-(trifluoromethyl)-9H-fluoren-4-yl)-1H-pyrazol-1-yl)propanamide] cannot be ordered by inhibition at 1 µM: no less than 50% for the first, no less than 50% for the second.

`O=C(Cn1cc(-c2cc(F)cc3c2-c2ccccc2C3(O)C(F)(F)F)cn1)NNc1ccc(C(=O)O)cn1` (stereo not shown) [Example 20, 6-(2-(2-(4-(2-fluoro-9-hydroxy-9-(trifluoromethyl)-9H-fluoren-4-yl)-1H-pyrazol-1-yl)acetyl)hydrazinyl)nicotinic acid] and `CC(C)(C)OC(=O)c1ccc(NNC(=O)Cn2cc(-c3cc(F)cc4c3-c3ccccc3C4(O)C(F)(F)F)cn2)nc1` (stereo not shown) [Example 19, tert-butyl 6-(2-(2-(4-(2-fluoro-9-hydroxy-9-(trifluoromethyl)-9H-fluoren-4-yl)-1H-pyrazol-1-yl)acetyl)hydrazinyl)nicotinate] cannot be ordered by inhibition at 1 µM: no less than 50% for the first, no less than 50% for the second.

`CC(C)(C(=O)NNc1ccc(F)cc1)n1cc(-c2cc(F)cc3c2-c2ccccc2C3(O)C(F)(F)F)cn1` (stereo not shown) [Example 47, 2-(4-(2-fluoro-9-hydroxy-9-(trifluoromethyl)-9H-fluoren-4-yl)-1H-pyrazol-1-yl)-N'-(4-fluorophenyl)-2-methylpropanehydrazide] and `C[C@H](C(=O)NNc1ccc(F)cc1)n1cc(-c2cc(F)cc3c2-c2ccccc2[C@]3(O)C(F)(F)F)cn1` [Example 49, (R)-2-(4-((R)-2-fluoro-9-hydroxy-9-(trifluoromethyl)-9H-fluoren-4-yl)-1H-pyrazol-1-yl)-N'-(4-fluorophenyl)propanehydrazide] cannot be ordered by inhibition at 1 µM: no less than 50% for the first, no less than 50% for the second.

`COc1cc(-c2cnn(C(C)C(=O)NNc3cccc4ccccc34)c2)c2c(c1)C(O)(C(F)(F)F)c1ccccc1-2` (stereo not shown) [Example 11, 2-(4-(9-hydroxy-2-methoxy-9-(trifluoromethyl)-9H-fluoren-4-yl)-1H-pyrazol-1-yl)-N'-(naphthalen-1-yl)propanehydrazide] and `COc1cc(-c2cnn(C(C)C(=O)NNc3cccnc3)c2)c2c(c1)C(O)(C(F)(F)F)c1ccccc1-2` (stereo not shown) [Example 31, 2-(4-(9-hydroxy-2-methoxy-9-(trifluoromethyl)-9H-fluoren-4-yl)-1H-pyrazol-1-yl)-N'-(pyridin-3-yl)propanehydrazide] cannot be ordered by inhibition at 1 µM: no less than 50% for the first, no less than 50% for the second.

`COc1cc(-c2cnn(C(C)C(=O)NNc3ccc(C(=O)O)cn3)c2)c2c(c1)C(O)(C(F)(F)F)c1ccccc1-2` (stereo not shown) [Example 16, 6-(2-(2-(4-(9-hydroxy-2-methoxy-9-(trifluoromethyl)-9H-fluoren-4-yl)-1H-pyrazol-1-yl)propanoyl)hydrazinyl)nicotinic acid] and `COc1cc(-c2cnn(C(C)C(=O)NNc3ccc(S(C)(=O)=O)cc3)c2)c2c(c1)C(O)(C(F)(F)F)c1ccccc1-2` (stereo not shown) [Example 23, 2-(4-(9-hydroxy-2-methoxy-9-(trifluoromethyl)-9H-fluoren-4-yl)-1H-pyrazol-1-yl)-N'-(4-(methylsulfonyl)phenyl)propanehydrazide] cannot be ordered by inhibition at 1 µM: no less than 50% for the first, no less than 50% for the second.

`O=C(NNc1ccc(F)cc1)C(CC1CCCCC1)n1cc(-c2cc(F)cc3c2-c2ccccc2C3(O)C(F)(F)F)cn1` (stereo not shown) [Example 46, 3-cyclohexyl-2-(4-(2-fluoro-9-hydroxy-9-(trifluoromethyl)-9H-fluoren-4-yl)-1H-pyrazol-1-yl)-N'-(4-fluorophenyl)propanehydrazide] and `O=C(Cn1cc(-c2cc(F)cc3c2-c2ccccc2C3(O)C(F)(F)F)cn1)NNc1ccc(F)cc1` (stereo not shown) [Example 21, 2-(4-(2-fluoro-9-hydroxy-9-(trifluoromethyl)-9H-fluoren-4-yl)-1H-pyrazol-1-yl)-N'-(4-fluorophenyl)acetohydrazide] cannot be ordered by inhibition at 1 µM: no less than 50% for the first, no less than 50% for the second.

`CC(C(=O)NNc1ccc(Cl)cc1)n1cc(-c2cc(F)cc3c2-c2ccccc2C3(O)C(F)(F)F)cn1` (stereo not shown) [Example 7, N'-(4-chlorophenyl)-2-(4-(2-fluoro-9-hydroxy-9-(trifluoromethyl)-9H-fluoren-4-yl)-1H-pyrazol-1-yl)propanehydrazide] and `COc1cc(-c2cnn(C(C)C(=O)NNc3ccc(S(C)(=O)=O)cc3F)c2)c2c(c1)C(O)(C(F)(F)F)c1ccccc1-2` (stereo not shown) [Example 9, N'-(2-fluoro-4-(methylsulfonyl)phenyl)-2-(4-(9-hydroxy-2-methoxy-9-(trifluoromethyl)-9H-fluoren-4-yl)-1H-pyrazol-1-yl)propanehydrazide] cannot be ordered by inhibition at 1 µM: no less than 50% for the first, no less than 80% for the second.
